Reference: patent US20140249135A1, “PIM KINASE INHIBITORS AND METHODS OF THEIR USE” (NOVARTIS AG, priority 2007, published 2014)

Assays:
Format in all cases: biochemical
[1] = biological target: Pim2 kinase (Homo sapiens, UniProt Q9P1W9); assay: Pim2 ATP depletion assay; conditions: read-out: PIM2 IC50;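 also: Luciferase-based luminescent readout of ATP remaining after PIM2 phosphorylates a BAD peptide, final 5 nM enzyme, 4 µM ATP, 10 µM peptide, 2.5% DMSO, run to roughly half ATP consumption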
[2] = biological target: Pim3 kinase (Homo sapiens, UniProt Q86V86); assay: Pim3 ATP depletion assay; conditions: read-out: PIM3 IC50
[3] = biological target: Pim1 kinase (Homo sapiens, UniProt P11309); assay: Pim1 ATP depletion assay; conditions: Pim1 ATP depletion assay; read-out: PIM1 IC50;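 also: Luciferase-luciferin luminescence readout of residual ATP after PIM1 transfers phosphate to a peptide substrate, 40 µM ATP added, reaction run to roughly half ATP consumption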
Pim1 kinase, sequence (P11309 whole entry): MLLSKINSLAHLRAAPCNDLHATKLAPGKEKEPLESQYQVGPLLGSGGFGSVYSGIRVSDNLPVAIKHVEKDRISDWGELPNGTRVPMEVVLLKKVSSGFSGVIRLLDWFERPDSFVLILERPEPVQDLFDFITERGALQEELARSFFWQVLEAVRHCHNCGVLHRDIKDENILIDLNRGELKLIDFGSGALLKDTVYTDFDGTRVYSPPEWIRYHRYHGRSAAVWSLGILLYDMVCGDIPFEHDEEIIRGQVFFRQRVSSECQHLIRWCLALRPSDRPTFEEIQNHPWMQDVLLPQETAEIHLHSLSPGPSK

Measured: IC50

Pim2 kinase, sequence (Q9P1W9 whole entry): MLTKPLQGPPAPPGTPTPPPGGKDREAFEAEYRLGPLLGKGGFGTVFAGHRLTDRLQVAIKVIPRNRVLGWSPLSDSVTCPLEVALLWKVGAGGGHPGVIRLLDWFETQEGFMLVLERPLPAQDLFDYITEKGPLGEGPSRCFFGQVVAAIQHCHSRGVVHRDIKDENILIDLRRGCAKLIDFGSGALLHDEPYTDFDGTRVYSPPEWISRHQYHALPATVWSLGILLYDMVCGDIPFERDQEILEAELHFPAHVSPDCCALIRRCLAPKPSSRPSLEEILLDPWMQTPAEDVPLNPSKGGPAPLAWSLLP

Nc1ccc(C23CC4CC(CC(C4)C2)C3)nc1C(=O)Nc1cnccc1N1CCC[C@H](N)C1 [Example 645, 6-Adamantan-1-yl-3-amino-pyridine-2-carboxylic acid (3-amino-3,4,5,6-tetrahydro-2H-[1,4′]bipyridinyl-3′-yl)-amide]
< 1000 nM: all assays above

Nc1cc(-c2ccncc2NC(=O)c2cccc(-c3nccs3)n2)nc(C(F)(F)F)n1 [Example 647, N-{4-[6-amino-2-(trifluoro-methyl)pyrimidin-4-yl]-pyridin-3-yl}-6-(1,3-thiazol-2-yl)pyridine-2-carboxamide]
< 1000 nM: all assays above

CC(C)NC(=O)c1ccc(F)c(-c2ccc(N)c(C(=O)Nc3cnccc3N3CCC[C@H](O)C3)n2)c1 [Example 651, 3-Amino-6-(2-fluoro-5-isopropylcarbamoyl-phenyl)-pyridine-2-carboxylic acid (3-hydroxy-3,4,5,6-tetrahydro-2H-[1,4′]bipyridinyl-3′-yl)-amide]
< 1000 nM: all assays above

CC(C)Oc1ccc(F)c(-c2ccc(N)c(C(=O)Nc3cnccc3N3CCC[C@H](O)C3)n2)c1F [Example 652, 3-Amino-6-(2,6-difluoro-3-isopropoxy-phenyl)-pyridine-2-carboxylic acid (3-hydroxy-3,4,5,6-tetrahydro-2H-[1,4′]bi-pyridinyl-3′-yl)-amide]
< 1000 nM: all assays above

Nc1ccc(-c2c(F)cccc2F)nc1C(=O)Nc1cnccc1N1CCC[C@H](O)C1 [Example 653, 3-Amino-6-(2,6-difluoro-phenyl)-pyridine-2-carboxylic acid (3-hydroxy-3,4,5,6-tetra-hydro-2H-[1,4′]bipyridinyl-3′-yl)-amide]
< 1000 nM: all assays above

Cc1cc(F)c(-c2ccc(N)c(C(=O)Nc3cnccc3N3CCCC(O)C3)n2)cc1Cl (stereo not drawn) [Example 654, 3-Amino-6-(5-chloro-2-fluoro-4-methyl-phenyl)-pyridine-2-carboxylic acid (3-hydroxy-3,4,5,6-tetrahydro-2H-[1,4′]bi-pyridinyl-3′-yl)-amide]
< 1000 nM: all assays above

Nc1ccc(-c2cccc(Cl)c2F)nc1C(=O)Nc1cnccc1N1CCCC(O)C1 (stereo not drawn) [Example 655, 3-Amino-6-(3-chloro-2-fluoro-phenyl)-pyridine-2-carboxylic acid (3-hydroxy-3,4,5,6-tetra-hydro-2H-[1,4′]bipyridinyl-3′-yl)-amide]
< 1000 nM: all assays above

Nc1ccc(-c2cc(C(=O)Nc3ccccc3)ccc2F)nc1C(=O)Nc1cnccc1N1CCCC(O)C1 (stereo not drawn) [Example 656, 3-Amino-6-(2-fluoro-5-phenyl-carbamoyl-phenyl)-pyridine-2-carboxylic acid (3-hydroxy-3,4,5,6-tetrahydro-2H-[1,4′]bi-pyridinyl-3′-yl)-amide]
< 1000 nM: all assays above

CN(C)C(=O)c1ccc(F)c(-c2ccc(N)c(C(=O)Nc3cnccc3N3CCCC(O)C3)n2)c1 (stereo not drawn) [Example 657, 3-Amino-6-(5-dimethyl-carbamoyl-2-fluoro-phenyl)-pyridine-2-carboxylic acid (3-hydroxy-3,4,5,6-tetrahydro-2H-[1,4′]bipyridinyl-3′-yl)-amide]
< 1000 nM: all assays above

Nc1ccc(-c2c(F)cccc2F)nc1C(=O)Nc1cnccc1N1CCCC(O)C1 (stereo not drawn) [Example 658, 3-Amino-6-(2,6-difluoro-phenyl)-pyridine-2-carboxylic acid (3-hydroxy-3,4,5,6-tetra-hydro-2H-[1,4′]bipyridinyl-3′-yl)-amide]
< 1000 nM: all assays above

Nc1ccc(-c2ccccc2F)nc1C(=O)Nc1cnccc1N1CCC[C@@H](O)C1 [Example 659, 3-Amino-6-(2-fluoro-phenyl)-pyridine-2-carboxylic acid (3-hydroxy-3,4,5,6-tetrahydro-2H-[1,4′]bipyridinyl-3′-yl)-amide]
< 1000 nM: all assays above

Nc1ccc(-c2ccccc2F)nc1C(=O)Nc1cnccc1N1CCC[C@H](O)C1 [Example 660, 3-Amino-6-(2-fluoro-phenyl)-pyridine-2-carboxylic acid (3-hydroxy-3,4,5,6-tetrahydro-2H-[1,4′]bipyridinyl-3′-yl)-amide]
< 1000 nM: all assays above

Nc1ccc(-c2ccccc2F)nc1C(=O)Nc1cnccc1N1CCCC(O)C1 (stereo not drawn) [Example 661, 3-Amino-6-(2-fluoro-phenyl)-pyridine-2-carboxylic acid (3-hydroxy-3,4,5,6-tetrahydro-2H-[1,4′]bipyridinyl-3′-yl)-amide]
< 1000 nM: all assays above

CC(C)Oc1ccc(F)c(-c2nc(C(=O)Nc3cnccc3N3CC[C@@H](O)[C@H](N)C3)c(N)cc2F)c1F [Example 664, 3-Amino-6-(2,6-difluoro-3-isopropoxy-phenyl)-5-fluoro-pyridine-2-carboxylic acid (3-amino-4-hydroxy-3,4,5,6-tetra-hydro-2H-[1,4′]bipyridinyl-3′-yl)-amide]
< 1000 nM: all assays above

CC(C)Oc1ccc(F)c(-c2nc(C(=O)Nc3cnccc3N3CC[C@@H](N)[C@H](O)C3)c(N)cc2F)c1F [Example 666, 3-Amino-6-(2,6-difluoro-3-isopropoxy-phenyl)-5-fluoro-pyridine-2-carboxylic acid (4-amino-3-hydroxy-3,4,5,6-tetra-hydro-2H-[1,4′]bipyridinyl-3′-yl)-amide]
< 1000 nM: all assays above

CC(C)NC(=O)c1ccc(F)c(-c2ccc(N)c(C(=O)Nc3cnccc3N3CC[C@@H](N)[C@H](O)C3)n2)c1 [Example 668, 3-Amino-6-(2-fluoro-5-isopropylcarbamoyl-phenyl)-pyridine-2-carboxylic acid (4-amino-3-hydroxy-3,4,5,6-tetra-hydro-2H-[1,4′]bipyridinyl-3′-yl)-amide]
< 1000 nM: all assays above

Nc1ccc(-c2nccs2)nc1C(=O)Nc1cnccc1N1CC[C@@H](O)[C@H](N)C1 [Example 669, 3-Amino-6-thiazol-2-yl-pyridine-2-carboxylic acid (3-amino-4-hydroxy-3,4,5,6-tetra-hydro-2H-[1,4′]bipyridinyl-3′-yl)-amide]
< 1000 nM: all assays above

CC(C)NC(=O)c1ccc(F)c(-c2ccc(N)c(C(=O)Nc3cnccc3N3CC[C@@H](O)[C@H](N)C3)n2)c1 [Example 671, 3-Amino-6-(2-fluoro-5-isopropylcarbamoyl-phenyl)-pyridine-2-carboxylic acid (3-amino-4-hydroxy-3,4,5,6-tetra-hydro-2H-[1,4′]bipyridinyl-3′-yl)-amide]
< 1000 nM: all assays above

Nc1ccc(-c2c(F)cccc2F)nc1C(=O)Nc1cnccc1N1C[C@@H](N)C[C@@H](O)C1 [Example 672, 3-Amino-6-(2,6-difluoro-phenyl)-pyridine-2-carboxylic acid (3-amino-5-hydroxy-3,4,5,6-tetrahydro-2H-[1,4′]bi-pyridinyl-3′-yl)-amide]
< 1000 nM: all assays above

CC1(N)CCCN(c2ccncc2NC(=O)c2nc(-c3c(F)cccc3F)ncc2N)C1 (stereo not drawn) [Example 673, 5-Amino-2-(2,6-difluoro-phenyl)-pyrimidine-4-carboxylic acid (3-amino-3-methyl-3,4,5,6-tetrahydro-2H-[1,4′]bipyridinyl-3′-yl)-amide]
< 1000 nM: all assays above

CC1(N)CCCN(c2ccncc2NC(=O)c2nc(-c3ccccc3F)ccc2N)C1 (stereo not drawn) [Example 674, 3-Amino-6-(2-fluoro-phenyl)-pyridine-2-carboxylic acid (3-amino-3-methyl-3,4,5,6-tetra-hydro-2H-[1,4′]bipyridinyl-3′-yl)-amide]
< 1000 nM: all assays above

CC(C)NC(=O)c1ccc(F)c(-c2ccc(N)c(C(=O)Nc3cnccc3N3CCCC(C)(N)C3)n2)c1 (stereo not drawn) [Example 675, 3-Amino-6-(2-fluoro-5-isopropylcarbamoyl-phenyl)-pyridine-2-carboxylic acid (3-amino-3-methyl-3,4,5,6-tetra-hydro-2H-[1,4′]bipyridinyl-3′-yl)-amide]
< 1000 nM: all assays above

CC1(N)CCCN(c2ccncc2NC(=O)c2nc(-c3ccccc3F)ncc2N)C1 (stereo not drawn) [Example 676, 5-Amino-2-(2-fluoro-phenyl)-pyrimidine-4-carboxylic acid (3-amino-3-methyl-3,4,5,6-tetrahydro-2H-[1,4′]bi-pyridinyl-3′-yl)-amide]
< 1000 nM: all assays above
